Test [1] deals with Puccinia recondita. As to the kind of experiment: Fungicidal activity against Wheat Leaf Rust (WLR) disease. Type of test: in vivo. The settings on record: for WLR (Fungicidal Activities, C.V.): Wheat Leaf Rust.
Test [2] has as its system Pyricularia oryzae Carvara KA301. Type of test: in vivo. To be noted: for RCV (Fungicidal Activities, C.V.): Rice Blast.
In test [3] the test system is Phytophthora infestans. The class given is in vivo. To be noted: for TLB (Fungicidal Activities, C.V.): Tomato Late Blight.
In test [4] the test system is Botrytis cinerae. As to the kind of experiment: Fungicidal activity against Cucumber Gray Mold Rot (CGM) disease. Type of test: in vivo. To be noted: for Fungicidal Activities CGM (C.V.): 50 ppm; for CGM (Fungicidal Activities, C.V.): Cucumber Gray Mold Rot, concentration 50 ppm.
The test system of test [5] is Rhizoctonia solani AG-1. Put plainly: Fungicidal activity against Rice Sheath Blight (RSB) disease. The settings on record: for RSB (Fungicidal Activities, C.V.): Rice Sheath Blight.
Description: To examine fungicidal activity of the compounds of the present invention, each of the compounds listed in Table 3 and 4 was dissolved in 10% acetone to a concentration of 250 ppm, and Tween-20 was added thereto to a concentration of 250 or 500 ppm. 50 ml of the resulting solution was sprayed on leaves of a host plant. The plant was kept at room temperature for 24 hours to let the solvent evaporate, and then, a pathogenic fungus was inoculated thereonto. The plant was held in a humidity chamber for 24 hours, transferred to an plant growth room kept at 20 to 27° C. and a relative humidity of 60 to 80% and kept to induce disease. […] This procedure was repeated twice for each test. 10% Acetone solution containing 250 ppm of Tween-20 was used as a control.
The fungicidal activity of the compound of the present invention is repressed by a control value (C.V.) calculated as; [formula]
Rhizoctonia solani AG-1 was cultured on a PDA medium (potato 200 g, dextrose 20 g, agar 20 g and distilled water 1 ? for 3 days and the agar disc(diameter 0.6 cm) was inoculated and cultured on sterilized wheat bran medium in a 1 L bottle at 26 to 28° C. for 7 days. A mycelial mass was ground using a homogenizer, inoculated uniformly on soil of a pot wherein a Nakdong rice plant having 2 or 3 leaves and an height of 5 cm grew, and kept in humidity polyvinyl chamber for 5 days to induce RSB. L.A. on a leaf sheath was measured to calculate an C.V.
For test [6], the system named is Erysiphae graminis. As to the kind of experiment: Fungicidal activity against Barley Powdery Mildew (BPM) disease. The class given is in vivo. To be noted: for BPM (Fungicidal Activities, C.V.): Barley Powdery Mildew.

Where two headings read alike, the source gives them in different places.

For the compound `CON=C(C(=O)OC)c1ccccc1CON=C(C)c1cccc(OC(F)=C(c2cccc(C(F)(F)F)c2)C(F)(F)F)c1` [Compound 188], the results for the “Fungicidal Activities WLR (C.V.)” value in test [1] (2 ppm) and in test [1] (50 ppm) were 66% and 95%, respectively. In addition, the “Fungicidal Activities RCV (C.V.)” value stood at 76% in test [2] (2 ppm) and 71% in test [2] (50 ppm). In addition, the “Fungicidal Activities TLB (C.V.)” value was 0% in test [3] (2 ppm) and 40% in test [3] (50 ppm). The “Fungicidal Activities CGM (C.V.)” value in test [4] was 0%. Besides, the entries for the “Fungicidal Activities RSB (C.V.)” value in test [5] (2 ppm) and in test [5] (50 ppm) were 0% and 55%, respectively. Also, the results for the “Fungicidal Activities BPM (C.V.)” value in test [6] (2 ppm) and in test [6] (50 ppm) were 91% and 100%, respectively.
Consider `COC=C(C(=O)OC)c1ccccc1CON=C(C)c1cccc(OC(F)=C(c2ccc(C)c(C)c2)C(F)(F)F)c1` [Compound 153], for which the “WLR (Fungicidal Activities, C.V.)” value amounted to 91% in test [1] (concentration 2 ppm), 100% in test [1] (concentration 10 ppm) and 100% in test [1] (concentration 50 ppm). The “RCV (Fungicidal Activities, C.V.)” value in test [2] (concentration 2 ppm) came to 0%; in test [2] (concentration 10 ppm), 25%; in test [2] (concentration 50 ppm), 86%. Besides, the “TLB (Fungicidal Activities, C.V.)” value in test [3] (concentration 50 ppm) is reported as 13%. In test [4], the “CGM (Fungicidal Activities, C.V.)” value was determined as 20%. Moreover, the “RSB (Fungicidal Activities, C.V.)” value in test [5] (concentration 50 ppm) was 55%. Moreover, the “BPM (Fungicidal Activities, C.V.)” value amounted to 83% in test [6] (concentration 2 ppm), 99% in test [6] (concentration 10 ppm) and 100% in test [6] (concentration 50 ppm).
As to `CNC(=O)C(=NOC)c1ccccc1CON=C(C)c1cccc(OC(F)=Cc2ccc(F)cc2)c1` [Compound 82], the “WLR (Fungicidal Activities, C.V.)” value in test [1] (concentration 2 ppm) and in test [1] (concentration 50 ppm) was 100% each time. For the same compound, the “RCV (Fungicidal Activities, C.V.)” value in test [2] (concentration 2 ppm) was 100%; in test [2] (concentration 50 ppm), 96%. The “TLB (Fungicidal Activities, C.V.)” value in test [3] (concentration 2 ppm) was 85%; in test [3] (concentration 50 ppm) it was 84%. Besides, the “CGM (Fungicidal Activities, C.V.)” value in test [4] is listed as 82%. Further, the “RSB (Fungicidal Activities, C.V.)” value in test [5] (concentration 2 ppm) was 55%; in test [5] (concentration 50 ppm), 85%. The “BPM (Fungicidal Activities, C.V.)” value in test [6] (concentration 2 ppm) and in test [6] (concentration 50 ppm) was 100% throughout.
For `CON=C(C(=O)OC)c1ccccc1CON=C(c1cccc(OC(F)=Cc2ccccc2)c1)C(F)(F)F` [Compound 102], the results for the “WLR (Fungicidal Activities, C.V.)” value in test [1] (concentration 2 ppm), in test [1] (concentration 10 ppm) and in test [1] (concentration 50 ppm) were 94%, 96% and 99%, respectively. For the same compound, the “RCV (Fungicidal Activities, C.V.)” value in test [2] (concentration 2 ppm) was 71%; in test [2] (concentration 10 ppm), 86%; in test [2] (concentration 50 ppm), 99%. Besides, in test [3] (concentration 50 ppm), the “TLB (Fungicidal Activities, C.V.)” value was found to be 0%. In addition, the “CGM (Fungicidal Activities, C.V.)” value in test [4] was determined as 23%. Moreover, the “RSB (Fungicidal Activities, C.V.)” value in test [5] (concentration 50 ppm) is recorded as 50%. Moreover, the entries for the “BPM (Fungicidal Activities, C.V.)” value in test [6] (concentration 2 ppm), in test [6] (concentration 10 ppm) and in test [6] (concentration 50 ppm) were 97%, 100% and 100%, respectively.
For the compound `COC=C(C(=O)OC)c1ccccc1CON=C(C)c1cccc(OC(F)=C(c2cc(C)cc(C)c2)C(F)(F)F)c1` [Compound 154], the “WLR (Fungicidal Activities, C.V.)” value in test [1] (concentration 2 ppm) stood at 73%; in test [1] (concentration 10 ppm) it was 96%; in test [1] (concentration 50 ppm), 98%. For the same compound, the “RCV (Fungicidal Activities, C.V.)” value in test [2] (concentration 50 ppm) is recorded as 16%. The “TLB (Fungicidal Activities, C.V.)” value in test [3] (concentration 50 ppm) is 12%. In test [4], the “CGM (Fungicidal Activities, C.V.)” value is listed as 58%. In addition, the “RSB (Fungicidal Activities, C.V.)” value is 25% in test [5] (concentration 2 ppm), 35% in test [5] (concentration 10 ppm) and 90% in test [5] (concentration 50 ppm). Besides, the entries for the “BPM (Fungicidal Activities, C.V.)” value in test [6] (concentration 2 ppm), in test [6] (concentration 10 ppm) and in test [6] (concentration 50 ppm) were 68%, 98% and 100%, respectively.
Consider `COC=C(C(=O)OC)c1ccccc1CON=C(C)c1cccc(OC(F)=C(c2ccc(F)cc2)C(F)(F)F)c1` [Compound 160], for which the “Fungicidal Activities WLR (C.V.)” value in test [1] (2 ppm) turned out to be 99%. Further, the “WLR (Fungicidal Activities, C.V.)” value in test [1] (concentration 10 ppm) and in test [1] (concentration 50 ppm) was 100% each time. Besides, the “Fungicidal Activities RCV (C.V.)” value in test [2] (2 ppm) turned out to be 86%. Also, the “RCV (Fungicidal Activities, C.V.)” value in test [2] (concentration 10 ppm) and in test [2] (concentration 50 ppm) was 100% throughout. For the same compound, the “TLB (Fungicidal Activities, C.V.)” value in test [3] (concentration 50 ppm) was 92%. Moreover, the “CGM (Fungicidal Activities, C.V.)” value in test [4] is on record as 36%. The “RSB (Fungicidal Activities, C.V.)” value in test [5] (concentration 50 ppm) is 70%. Moreover, in test [6] (2 ppm), the “Fungicidal Activities BPM (C.V.)” value stood at 99%. In addition, the “BPM (Fungicidal Activities, C.V.)” value in test [6] (concentration 10 ppm) and in test [6] (concentration 50 ppm) was 100% in each case.
`COC=C(C(=O)OC)c1ccccc1CON=Cc1cccc(OC(F)=Cc2cccc(F)c2)c1` [Compound 11]: the “WLR (Fungicidal Activities, C.V.)” value in test [1] (concentration 2 ppm) is given as 97%; in test [1] (concentration 10 ppm), 100%; in test [1] (concentration 50 ppm) it was 100%. Besides, the “RCV (Fungicidal Activities, C.V.)” value in test [2] (concentration 2 ppm) was 33%; in test [2] (concentration 10 ppm), 86%; in test [2] (concentration 50 ppm), 100%. In addition, the “TLB (Fungicidal Activities, C.V.)” value in test [3] (concentration 50 ppm) is 85%. In test [4], the “CGM (Fungicidal Activities, C.V.)” value is on record as 17%. Further, the “RSB (Fungicidal Activities, C.V.)” value in test [5] (concentration 50 ppm) was 40%. Also, the “BPM (Fungicidal Activities, C.V.)” value in test [6] (concentration 2 ppm) amounted to 98%; in test [6] (concentration 10 ppm), 99%; in test [6] (concentration 50 ppm), 100%.
As to `CNC(=O)C(=NOC)c1ccccc1CON=Cc1cccc(OC(F)=Cc2ccc3c(c2)OCO3)c1` [Compound 39], the entries for the “WLR (Fungicidal Activities, C.V.)” value in test [1] (concentration 2 ppm) and in test [1] (concentration 50 ppm) were 0% and 100%, respectively. Besides, the “RCV (Fungicidal Activities, C.V.)” value is 93% in test [2] (concentration 2 ppm) and 100% in test [2] (concentration 50 ppm). In addition, the “TLB (Fungicidal Activities, C.V.)” value in test [3] (concentration 50 ppm) was 83%. The “CGM (Fungicidal Activities, C.V.)” value in test [4] is on record as 0%. Besides, the “RSB (Fungicidal Activities, C.V.)” value in test [5] (concentration 50 ppm) was determined as 58%. Also, the figures for the “BPM (Fungicidal Activities, C.V.)” value in test [6] (concentration 2 ppm) and in test [6] (concentration 50 ppm) were 0% and 100%, respectively.
Regarding `CON=C(C(=O)OC)c1ccccc1CON=C(C)c1cccc(OC(F)=C(c2cccc(Cl)c2)C(F)(F)F)c1` [Compound 184], the “Fungicidal Activities WLR (C.V.)” value in test [1] (2 ppm) worked out at 98%; in test [1] (50 ppm) it was 99%. In addition, the “Fungicidal Activities RCV (C.V.)” value in test [2] (2 ppm) worked out at 90%; in test [2] (50 ppm), 96%. The “Fungicidal Activities TLB (C.V.)” value is on record as 0% in test [3] (2 ppm) and 50% in test [3] (50 ppm). The “Fungicidal Activities CGM (C.V.)” value in test [4] is 0%. In addition, the “Fungicidal Activities RSB (C.V.)” value in test [5] (2 ppm) worked out at 20%; in test [5] (50 ppm), 85%. Further, the “Fungicidal Activities BPM (C.V.)” value was found to be 99% in test [6] (2 ppm) and 100% in test [6] (50 ppm).
In the case of `CON=C(C(=O)OC)c1ccccc1CON=Cc1cccc(OC(F)=Cc2ccc(F)cc2)c1` [Compound 27], in test [1] (concentration 50 ppm), the “WLR (Fungicidal Activities, C.V.)” value was 86%. In addition, the “RCV (Fungicidal Activities, C.V.)” value in test [2] (concentration 50 ppm) is listed as 100%. Further, in test [3] (concentration 50 ppm), the “TLB (Fungicidal Activities, C.V.)” value turned out to be 69%. Also, the “CGM (Fungicidal Activities, C.V.)” value in test [4] is 0%. In addition, the “RSB (Fungicidal Activities, C.V.)” value in test [5] (concentration 50 ppm) is listed as 25%. Moreover, the “BPM (Fungicidal Activities, C.V.)” value in test [6] (concentration 50 ppm) worked out at 91%.
Consider `CO/N=C(/C(=O)OC)c1ccccc1CON=C(C)c1cccc(OC(F)=Cc2ccccc2)c1` [Compound 64], for which the “WLR (Fungicidal Activities, C.V.)” value in test [1] (concentration 2 ppm) worked out at 99%; in test [1] (concentration 10 ppm), 100%; in test [1] (concentration 50 ppm), 100%. The “RCV (Fungicidal Activities, C.V.)” value in test [2] (concentration 2 ppm), in test [2] (concentration 10 ppm) and in test [2] (concentration 50 ppm) was 100% in each case. The results for the “TLB (Fungicidal Activities, C.V.)” value in test [3] (concentration 2 ppm), in test [3] (concentration 10 ppm) and in test [3] (concentration 50 ppm) were 87%, 90% and 95%, respectively. The “CGM (Fungicidal Activities, C.V.)” value in test [4] worked out at 75%. For the same compound, the “RSB (Fungicidal Activities, C.V.)” value in test [5] (concentration 2 ppm) was found to be 45%; in test [5] (concentration 10 ppm), 65%; in test [5] (concentration 50 ppm), 85%. Besides, the “BPM (Fungicidal Activities, C.V.)” value in test [6] (concentration 2 ppm), in test [6] (concentration 10 ppm) and in test [6] (concentration 50 ppm) was 100% each time.
`COC=C(C(=O)OC)c1ccccc1CON=C(c1cccc(OC(F)=Cc2ccc(OC)cc2)c1)C(F)(F)F` [Compound 89]: the “WLR (Fungicidal Activities, C.V.)” value in test [1] (concentration 10 ppm) was found to be 70%; in test [1] (concentration 50 ppm), 96%. In addition, in test [2] (concentration 50 ppm), the “RCV (Fungicidal Activities, C.V.)” value is 80%. In addition, the “TLB (Fungicidal Activities, C.V.)” value in test [3] (concentration 50 ppm) was 12%. Moreover, the “CGM (Fungicidal Activities, C.V.)” value in test [4] stood at 0%. In addition, in test [5] (concentration 50 ppm), the “RSB (Fungicidal Activities, C.V.)” value is given as 50%. Further, the “BPM (Fungicidal Activities, C.V.)” value in test [6] (concentration 10 ppm) worked out at 99%; in test [6] (concentration 50 ppm), 100%.
As to `COC=C(C(=O)OC)c1ccccc1CON=C(C)c1cccc(OC(F)=C(c2ccc(Br)cc2)C(F)(F)F)c1` [Compound 165], the “Fungicidal Activities WLR (C.V.)” value in test [1] (2 ppm) is recorded as 86%; in test [1] (10 ppm) it was 96%; in test [1] (50 ppm), 100%. Also, the “Fungicidal Activities RCV (C.V.)” value in test [2] (50 ppm) turned out to be 80%. For the same compound, the “Fungicidal Activities TLB (C.V.)” value in test [3] (50 ppm) is 6%. Further, the “Fungicidal Activities CGM (C.V.)” value in test [4] is reported as 68%. Moreover, the “Fungicidal Activities RSB (C.V.)” value in test [5] (50 ppm) was 45%. Besides, the “Fungicidal Activities BPM (C.V.)” value in test [6] (2 ppm) amounted to 71%; in test [6] (10 ppm), 99%; in test [6] (50 ppm), 100%.
